Values joined by “and” are separate entries in the source; they are usually repeats but may differ in a detail not shown here. Equal values may be shown once. Read-outs that look alike come from different tables or passages of the source.
Assay: In vivo pharmacokinetic study in male ICR mice (compound alone)
Conditions: for C0: read-out: C0
Method: The pharmacokinetics profile of the newly developed antiviral compound C5N17B was subsequently evaluated in male ICR mice that were free from specific pathogens, aiming to assess its potential for therapeutic application in vivo.
A total of six male ICR mice were randomly assigned to two groups. One group received the test drug intravenously at a dosage of 2 mg kg^−1, while the other group received oral administration at a dosage of 10 mg kg^−1. To prepare solutions of C5N17B, 2.39 mg compound was dissolved in a mixture of 0.119 mL DMSO, 0.238 mL polyoxyl 15 hydroxystearate (Solutol), and 2.027 mL normal saline. For the intravenous group, blood samples were collected from the sinus jugular into heparinized centrifugation tubes at various time points after dosing: 5, 15, 30 min, 1, 2, 4, 6, 8, and 24 h. As for the oral administration group, blood samples were collected at similar time points (0.05 mL of blood each time). The collected blood samples were then centrifuged at a speed of 4000 rpm for 10 min to separate plasma, which was subsequently stored at −20 °C until further LC‐MS analysis to determine the concentration of C5N17B. Briefly, the analysis involved adding 20 µL of plasma, sample calibration standard, quality control, and dilution quality control, and blank samples into respective wells on a 96‐well plate. Then each sample was quenched with 200 µL of internal standard (the blank sample was quenched with 200 µL of ACN: MeOH = 1:1), followed by vortex‐mixed for 5 min, and centrifuged for 0.5 min at 4000 rpm, 4 °C. Next, a 100 µL portion of supernatant was transferred to another clean 96‐well plate and diluted with 100 µL of water, vortex‐mixed for 5 min and centrifuged for 10 min at 4000 rpm, 4 °C, then the sample was injected for LC‐MS/MS analysis. All samples were quantified using an LC‐MS/MS‐AR Triple Quad 5500+ (SCIEX, USA) and the ExionLC liquid phase system. The mobile phase was 0.1% formic acid‐water/ACN with gradient elute at a flow rate of 0.8 mL mi^−1n (total time 2.20 min), and the detection wavelength was 225 nm. All blood samples were centrifuged using an Eppendorf 5424R centrifuge and quantified using an LC‐MS/MS‐AR Triple Quad 5500+ (SCIEX, USA). The pharmacokinetic parameters were calculated by WinNolin 8.2 software.

[1] = PO 10 mg/kg, individual mice 4-6, 10 mg/kg
[2] = i.v. 2 mg kg^−1, male ICR mice, n = 3

For Cc1cncc(C(=O)N2C[C@H]3CC[C@@H](C2)N3[C@H](c2cccc(F)c2)c2cn(CCc3ccsc3)nn2)c1 [Compound C5N17B], the MRTINF_pred [1] was 295 min and 184.93 min and 381.5 min, the MRTlast [1] was 113.8 min and 110 min and the Tlast [1] was 4 h and 6 h. For the same molecule, the Vz_F_obs [1] was 837.29 L/kg and 630.24 L/kg and 684.762 L/kg, the Vz_F_pred [1] was 906.828 L/kg and 630.882 L/kg and 737.02 L/kg and the “F, Mean” value (PO 10 mg/kg, mean of mice 4#-6#) was 13.0%. The “C0, i.v.” value [2] was 514 ± 164.7 ng/mL, the “t1/2, i.v.” value [2] was 6.36 ± 0.341 min and the concentration at 5 min (male, ICR, mouse, plasma, iv, 2 mg/kg, IV 2 mg/kg, 5 min (5 min), mouse plasma, individual mice 1#-3#, read-out: Plasma concentration (Calculated Concentration)) was 292 ng/mL. The concentration at 5 min (male, ICR, mouse, plasma, iv, 2 mg/kg, IV 2 mg/kg, 5 min, individual mice, read-out: plasma concentration) was 233 ng/mL, the concentration at 5 min (male, ICR, mouse, plasma, iv, 2 mg/kg, IV 2 mg/kg, 5 min, mean of mice 1#-3#, read-out: Plasma concentration, Mean) was 237 ng/mL and the concentration at 0.5 h (male, ICR, mouse, plasma, iv, 2 mg/kg, IV 2 mg/kg, 0.5 h (30 min), mouse plasma, individual mice 1#-3#, read-out: Plasma concentration (Calculated Concentration)) was 18.4 ng/mL. It also gave a concentration at 0.5 h (male, ICR, mouse, plasma, iv, 2 mg/kg, IV 2 mg/kg, 0.5 h, individual mice, read-out: plasma concentration) of 16.1 ng/mL, a concentration at 0.5 h (male, ICR, mouse, plasma, iv, 2 mg/kg, IV 2 mg/kg, 0.50 h, mean of mice 1#-3#, read-out: Plasma concentration, Mean) of 14.9 ng/mL and a concentration at […] (male, ICR, mouse, plasma, iv, 2 mg/kg, IV 2 mg/kg, […] (15 min), mouse plasma, individual mice 1#-3#, read-out: Plasma concentration (Calculated Concentration)) of 55.3 ng/mL. The AUC(0-t) (male, ICR, mouse, plasma, iv, 2 mg/kg, IV 2 mg/kg, individual mice 1#-3#, read-out: AUC0-t) was 78.3 ng·h/mL, the AUC(0-inf) (male, ICR, mouse, plasma, iv, 2 mg/kg, IV 2 mg/kg, individual mice 1#-3#, read-out: AUC0-∞) was 81.1 ng·h/mL and the C0 (male, ICR, mouse, plasma, iv, 2 mg/kg, IV 2 mg/kg, individual mice 1#-3#) was 671 ng/mL. The clearance (male, ICR, mouse, plasma, iv, 2 mg/kg, IV 2 mg/kg, individual mice 1#-3#, read-out: Cl (converted)) was 411 mL/min/kg, the Cmax (male, ICR, mouse, plasma, iv, 2 mg/kg, IV 2 mg/kg, individual mice 1#-3#, read-out: Cmax) was 292 ng/mL and the MRT last (male, ICR, mouse, plasma, iv, 2 mg/kg, IV 2 mg/kg, individual mice 1#-3#, read-out: MRT0-t) was 5.42 min. The MRT inf (male, ICR, mouse, plasma, iv, 2 mg/kg, IV 2 mg/kg, individual mice 1#-3#, read-out: MRT0-∞) was 6.6 min, the half-life (male, ICR, mouse, plasma, iv, 2 mg/kg, IV 2 mg/kg, individual mice 1#-3#, read-out: T1/2 (converted)) was 6.42 min and the Tmax (male, ICR, mouse, plasma, iv, 2 mg/kg, IV 2 mg/kg, individual mice 1#-3#, read-out: Tmax) was 5 min. For the same molecule, the Vd (male, ICR, mouse, plasma, iv, 2 mg/kg, IV 2 mg/kg, individual mice 1#-3#, read-out: Vz) was 3.82 L/kg, the AUC(0-inf) (male, ICR, mouse, plasma, iv, 2 mg/kg, IV 2 mg/kg, individual mice 1-3, read-out: AUCINF_obs) was 81.1 ng·h/mL and the AUC(0-inf) (male, ICR, mouse, plasma, iv, 2 mg/kg, IV 2 mg/kg, individual mice 1-3, read-out: AUCINF_pred) was 80.7 ng·h/mL. The AUC (male, ICR, mouse, plasma, iv, 2 mg/kg, IV 2 mg/kg, individual mice 1-3, read-out: AUCall) was 78.3 ng·h/mL, the AUC(0-t) (male, ICR, mouse, plasma, iv, 2 mg/kg, IV 2 mg/kg, individual mice 1-3, read-out: AUClast) was 78.3 ng·h/mL and the C0 (male, ICR, mouse, plasma, iv, 2 mg/kg, IV 2 mg/kg, individual mice 1-3) was 671 ng/mL. It also gave a clearance (male, ICR, mouse, plasma, iv, 2 mg/kg, IV 2 mg/kg, individual mice 1-3, read-out: Cl_obs (converted)) of 411 mL/min/kg, a concentration at 0.5 h (male, ICR, mouse, plasma, iv, 2 mg/kg, IV 2 mg/kg, individual mice 1-3, read-out: Clast) of 18.4 ng/mL and a Cmax (male, ICR, mouse, plasma, iv, 2 mg/kg, IV 2 mg/kg, individual mice 1-3, read-out: Cmax) of 292 ng/mL. It also gave a k el (male, ICR, mouse, plasma, iv, 2 mg/kg, IV 2 mg/kg, individual mice 1-3, read-out: Lambda_z (converted)) of 0.00179 s⁻¹, an MRT inf (male, ICR, mouse, plasma, iv, 2 mg/kg, IV 2 mg/kg, individual mice 1-3, read-out: MRTINF_obs) of 6.61 min and an MRT inf (male, ICR, mouse, plasma, iv, 2 mg/kg, IV 2 mg/kg, individual mice 1-3, read-out: MRTINF_pred) of 6.45 min. The MRT last (male, ICR, mouse, plasma, iv, 2 mg/kg, IV 2 mg/kg, individual mice 1-3, read-out: MRTlast) was 5.42 min, the Tmax (male, ICR, mouse, plasma, iv, 2 mg/kg, IV 2 mg/kg, individual mice 1-3, read-out: Tmax) was 5 min and the AUC(0-t) (male, ICR, mouse, plasma, iv, 2 mg/kg, IV 2 mg/kg, mean of mice 1#-3#, read-out: AUC0-t, Mean) was 63.6 ng·h/mL. The AUC(0-inf) (male, ICR, mouse, plasma, iv, 2 mg/kg, IV 2 mg/kg, mean of mice 1#-3#, read-out: AUC0-∞, Mean) was 65.9 ng·h/mL, the clearance (male, ICR, mouse, plasma, iv, 2 mg/kg, IV 2 mg/kg, mean of mice 1#-3#, read-out: Cl, Mean (converted)) was 524 mL/min/kg and the Cmax (male, ICR, mouse, plasma, iv, 2 mg/kg, IV 2 mg/kg, mean of mice 1#-3#, read-out: Cmax, Mean) was 237 ng/mL. It also gave an MRT last (male, ICR, mouse, plasma, iv, 2 mg/kg, IV 2 mg/kg, mean of mice 1#-3#, read-out: MRT0-t, Mean) of 5.81 min, an MRT inf (male, ICR, mouse, plasma, iv, 2 mg/kg, IV 2 mg/kg, mean of mice 1#-3#, read-out: MRT0-∞, Mean) of 6.96 min and a half-life (male, ICR, mouse, plasma, iv, 2 mg/kg, IV 2 mg/kg, mean of mice 1#-3#, read-out: T1/2, Mean (converted)) of 6.36 min. The Tmax (male, ICR, mouse, plasma, iv, 2 mg/kg, IV 2 mg/kg, mean of mice 1#-3#, read-out: Tmax, Mean) was 5 min, the Vd (male, ICR, mouse, plasma, iv, 2 mg/kg, IV 2 mg/kg, mean of mice 1#-3#, read-out: Vz, Mean) was 4.79 L/kg and the AUC (male, ICR, mouse, plasma, iv, 2 mg/kg, i.v. 2 mg kg^−1, male ICR mice, n = 3, read-out: AUC0‐t, i.v.) was 63.6 ± 14.2 ng·h/mL.
